Tested on: colorectal tissue transcripts
Assay: SAGE of normal, adenoma and cancer colorectal tissue (transcript tag counts)
Design: species or system human
Outline: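 SAGE libraries from two normal colonic epithelium samples, two colorectal adenomas (FAP patients, >70% neoplastic cells) and two colorectal cancers. Transcripts counted as 15-base 3′ tags from oligo(dT)-selected mRNA; repeated ditags, linkers and MHC-locus tags excluded before statistical library comparison.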

[1] = normal colorectal tissue library 1
[2] = normal colorectal tissue library 2

| Sequence | AD1 (SAGE tag count) (SAGE library AD1) | AD2 (SAGE tag count) (SAGE library AD2) | CA1 (SAGE tag count) (SAGE library CA1) | CA2 (SAGE tag count) (SAGE library CA2) | NC1 (SAGE tag count) (SAGE library NC1) | NC2 (SAGE tag count) (SAGE library NC2) | NC2 (SAGE tag count) (SAGE library NC2, major histocompatibility complex, class I, A) | NC2 (SAGE tag count) (SAGE library NC2, major histocompatibility complex, class I, C) | AD1 (SAGE tag count) (adenoma library 1) | AD2 (SAGE tag count) (adenoma library 2) | CA1 (SAGE tag count) (cancer library 1) | CA2 (SAGE tag count) (cancer library 2) | NC1 (SAGE tag count) [1] | NC2 (SAGE tag count) [2] |
| --- | --- | --- | --- | --- | --- | --- | --- | --- | --- | --- | --- | --- | --- | --- |
| GGAGGCCGAG (chemistry not fully specified) | 5 | 0 | 2 | 5 | 13 | 9 |  |  |  |  |  |  |  |  |
| GGAGGCGCTC (chemistry not fully specified) | 1 | 1 | 0 | 1 | 5 | 11 |  |  |  |  |  |  |  |  |
| GGATGGCTTA (chemistry not fully specified) | 2 | 1 | 1 | 1 | 25 | 5 |  |  |  |  |  |  |  |  |
| GGCACCGTGC (chemistry not fully specified) | 8 | 10 | 8 | 4 | 22 | 44 |  |  |  |  |  |  |  |  |
| GGCCCTGCAG (chemistry not fully specified) | 1 | 0 | 5 | 1 | 14 | 7 |  |  |  |  |  |  |  |  |
| GGCTCGGGAT (chemistry not fully specified) | 2 | 4 | 3 | 5 | 15 | 11 |  |  |  |  |  |  |  |  |
| GGCTGCCTGC (chemistry not fully specified) | 4 | 3 | 5 | 2 | 13 | 11 |  |  |  |  |  |  |  |  |
| GGCTGGGCCT (chemistry not fully specified) | 14 | 5 | 10 | 8 | 46 | 25 |  |  |  |  |  |  |  |  |
| GGGAAGCAGA (chemistry not fully specified) | 18 | 4 | 8 | 9 | 32 | 17 |  |  |  |  |  |  |  |  |
| GGGACGAGTG (chemistry not fully specified) | 1 | 3 | 6 | 1 | 20 | 6 |  |  |  |  |  |  |  |  |
| GGGCGCTGTG (chemistry not fully specified) | 3 | 6 | 4 | 5 | 11 | 27 |  |  |  |  |  |  |  |  |
| GGGGCAGGGC (chemistry not fully specified) | 27 | 10 | 15 | 31 | 48 | 64 |  |  |  |  |  |  |  |  |
| GGTGAAGAGG (chemistry not fully specified) | 5 | 3 | 10 | 9 | 16 | 32 |  |  |  |  |  |  |  |  |
| GTAGCAGGTG (chemistry not fully specified) | 11 | 7 | 7 | 7 | 24 | 27 |  |  |  |  |  |  |  |  |
| GTATTGGGGC (chemistry not fully specified) | 0 | 0 | 0 | 0 | 5 | 7 |  |  |  |  |  |  |  |  |
| GTCATCACCA (chemistry not fully specified; the letters are possibly those of the target site) | 0 | 0 | 0 | 0 | 35 | 22 |  |  |  |  |  |  |  |  |
| GTCCGAGTGC (chemistry not fully specified) | 0 | 0 | 0 | 0 | 17 | 3 |  |  |  |  |  |  |  |  |
| GTCCTGAACA (chemistry not fully specified) | 0 | 0 | 0 | 0 | 7 | 3 |  |  |  |  |  |  |  |  |
| GTGCACTGAG (chemistry not fully specified) | 14 | 7 | 12 | 13 | 118 |  | 48 | 45 |  |  |  |  |  |  |
| GTGCCTGAGA (chemistry not fully specified) | 2 | 6 | 7 | 3 | 18 | 15 |  |  |  |  |  |  |  |  |
| GTGGCGGGAA (chemistry not fully specified) | 1 | 0 | 4 | 0 | 3 | 15 |  |  |  |  |  |  |  |  |
| GTGGGGGCGC (chemistry not fully specified) | 2 | 0 | 1 | 0 | 5 | 22 |  |  |  |  |  |  |  |  |
| GTGGTGGCAG (chemistry not fully specified; the letters are possibly those of the target site) | 1 | 1 | 10 | 3 | 29 | 11 |  |  |  |  |  |  |  |  |
| GTGGTTCACG (chemistry not fully specified) | 0 | 0 | 0 | 0 | 4 | 5 |  |  | 0 | 0 | 0 | 0 | 4 | 5 |
| GTGTTGGGGG (chemistry not fully specified) |  |  |  |  |  |  |  |  | 8 | 6 | 1 | 3 | 21 | 19 |
| GTTTAGAGGG (chemistry not fully specified) |  |  |  |  |  |  |  |  | 0 | 0 | 2 | 1 | 5 | 16 |
| TAAATTGCAA (chemistry not fully specified) |  |  |  |  |  |  |  |  | 8 | 17 | 5 | 3 | 103 | 59 |

— US8029764B2, “Methods for detection of colorectal cancer” (The Johns Hopkins University, priority 2001, dated 2011)
